# Assay results from patent US8063096B2, “Spirocyclic 3-phenyl-3substituted-4-ketolactams and-lactones” (Bayer Cropscience AG, priority 2001, dated 2011).
# Read-outs that look alike come from different tables or passages of the source.
# Experiments:
# Meloidogyne incognita = experiment: Meloidogyne test (gall formation on lettuce roots); type: in vivo; conditions: 20 ppm active compound, nematicidal action by gall formation
# Description: [table] To produce a suitable preparation of active compound, 1 part by weight of active compound is mixed with the stated amounts of solvent and emulsifier, and the concentrate is diluted with water to the desired concentration. Vessels are filled with sand, solution of active compound, Meloidogyne incognita egg/larvae suspension and lettuce seeds. The lettuce seeds germinate and the plants develop. On the roots, galls develop. After the desired period of time, the nematicidal action is determined in % by the formation of galls. 100% means that no galls have been found; 0% means that the number of galls on the treated plants corresponds to that of the untreated control.
# Tetranychus urticae = experiment: Tetranychus test (OP-resistant/dip treatment); type: in vivo; conditions: 100 ppm active compound, bean plants dipped, OP-resistant
# Description: [table] To produce a suitable preparation of active compound, 1 part by weight of active compound is mixed with the stated amounts of solvent and emulsifier, and the concentrate is diluted with emulsifier-containing water to the desired concentration. Bean plants (Phaseolus vulgaris) which are heavily infested by all stages of the greenhouse […] spider mite (Tetranychus urticae) are dipped into a preparation of active compound of the desired concentration. After the desired period of time, the activity in % is determined. 100% means that all spider mites have been killed; 0% means that none of the spider mites have been killed.
# Phaedon cochleariae = experiment: Phaedon larvae test; type: in vivo; conditions: 500 ppm active compound, cabbage leaves dipped
# Description: (§1) [table] To produce a suitable preparation of active compound, 1 part by weight of active compound is mixed with the stated amounts of solvent and emulsifier, and the concentrate is diluted with emulsifier-containing water to the desired concentration. Cabbage leaves (Brassica oleracea) are treated by being dipped into the preparation of active compound of the desired concentration and are populated with larvae of the mustard beetle (Phaedon cochleariae) while leaves are still moist. After the desired period of time, the kill in % is determined. 100% means that all beetle larvae have been killed; 0% means that none of the beetle larvae have been killed.
# Alopecurus [1] = experiment: Pre-emergence test, Alopecurus; type: in vivo; conditions: pre-emergence/greenhouse; 250 g of ai/ha; after three weeks
# Description: (§2) [table] To produce a suitable preparation of active compound, 1 part by weight of active compound is mixed with the stated amount of solvent, the stated amount of emulsifier is added and the concentrate is diluted with water to the desired concentration. Seeds of the test plants are sown in normal soil. After about 24 hours, the soil is sprayed with the preparation of active compound such that the particular amounts of active compound desired are applied per unit area. The concentration of the spray liquor is chosen such that the particular amounts of active compound desired are applied in 1000 l of water/ha. After three weeks, the degree of damage to the plants is rated in % damage in comparison to the development of the untreated control. The figures denote: • 0%=no effect (like untreated control) • 100%=total destruction
# Avena fatua [2] = experiment: Pre-emergence test, Avena fatua; type: in vivo; conditions: pre-emergence/greenhouse; 250 g of ai/ha; after three weeks
# Description: as §2
# Echinochloa [3] = experiment: Pre-emergence test, Echinochloa; type: in vivo; conditions: pre-emergence/greenhouse; 250 g of ai/ha; after three weeks
# Description: as §2
# Setaria [4] = experiment: Pre-emergence test, Setaria; type: in vivo; conditions: pre-emergence/greenhouse; 250 g of ai/ha; after three weeks
# Description: as §2
# Sinapis [5] = experiment: Pre-emergence test, Sinapis; type: in vivo; conditions: pre-emergence/greenhouse; 250 g of ai/ha; after three weeks
# Description: as §2
# Alopecurus [6] = experiment: Post-emergence test, Alopecurus; type: in vivo; conditions: post-emergence/greenhouse; 250 g of ai/ha; after three weeks
# Description: as §2, with “Test plants” for “Seeds”, “a height of 5-15 cm” for “the test plants”, “are” for “are sown in normal soil. After about 24 hours, the soil is”, “(=like” for “(like”
# Avena fatua [7] = experiment: Post-emergence test, Avena fatua; type: in vivo; conditions: post-emergence/greenhouse; 250 g of ai/ha; after three weeks
# Description: as §2, with “Test plants” for “Seeds”, “a height of 5-15 cm” for “the test plants”, “are” for “are sown in normal soil. After about 24 hours, the soil is”, “(=like” for “(like”
# Echinochloa [8] = experiment: Post-emergence test, Echinochloa; type: in vivo; conditions: post-emergence/greenhouse; 250 g of ai/ha; after three weeks
# Description: as §2, with “Test plants” for “Seeds”, “a height of 5-15 cm” for “the test plants”, “are” for “are sown in normal soil. After about 24 hours, the soil is”, “(=like” for “(like”
# Setaria [9] = experiment: Post-emergence test, Setaria; type: in vivo; conditions: post-emergence/greenhouse; 250 g of ai/ha; after three weeks
# Description: as §2, with “Test plants” for “Seeds”, “a height of 5-15 cm” for “the test plants”, “are” for “are sown in normal soil. After about 24 hours, the soil is”, “(=like” for “(like”
# Sinapis [10] = experiment: Post-emergence test, Sinapis; type: in vivo; conditions: post-emergence/greenhouse; 250 g of ai/ha; after three weeks
# Description: as §2, with “Test plants” for “Seeds”, “a height of 5-15 cm” for “the test plants”, “are” for “are sown in normal soil. After about 24 hours, the soil is”, “(=like” for “(like”
# Myzus persicae [11] = experiment: Myzus test (leaf dip, cabbage); type: in vivo; conditions: 500 ppm active compound, cabbage leaves dipped
# Description: as §1, with “oleracea) which are heavily infested by peach aphids (Myzus persicae)” for “oleracea)”, “concentration.” for “concentration and are populated with larvae of the mustard beetle (Phaedon cochleariae) while leaves are still moist.”, “aphids” for “beetle larvae”
# Aphis gossypii [12] = experiment: Aphis gossypii test (leaf dip, cotton); type: in vivo; conditions: 500 ppm active compound, cotton leaves dipped
# Description: as §1, with “Cotton” for “Cabbage”, “(Gossypium hirsutum) which are heavily infested by the cotton aphids (Aphis gossypii)” for “(Brassica oleracea)”, “concentration.” for “concentration and are populated with larvae of the mustard beetle (Phaedon cochleariae) while leaves are still moist.”, “aphids” for “beetle larvae”
# Aphis gossypii [13] = experiment: Test for persistency: Aphis gossypii (root-systemic action); type: in vivo; conditions: 4 ppm in soil, cotton
# Description: (§3) [table] To produce a suitable preparation of active compound, 1 part by weight of active compound is mixed with the stated amounts of solvent and emulsifier, and the concentrate is diluted with water to the desired concentration. The preparation of active compound is mixed intimately with the soil. The stated concentration refers to the amount of active compound per volume unit of soil (mg/l). The treated soil is filled into pots, and into these pots is planted cotton at the cotyledon stage. In this way, the active compound can be taken up from the soil into the roots of the plants and be transported into the leaves. After the stated number of days, cotton aphids (Aphis gossypii) are, in infection chambers, placed on the leaves. After the desired period of time, the kill in % is determined. 100% means that all aphids have been killed; 0% means that none of the aphids have been killed.
# Myzus persicae [14] = experiment: Test for persistency: Myzus persicae (root-systemic action); type: in vivo; conditions: 4 ppm in soil, broad beans
# Description: as §3, with “pre-germinated broad beans.” for “cotton at the cotyledon stage.”, “peach” for “cotton”, “(Myzus persicae)” for “(Aphis gossypii)”
# log P determination = type: physicochemical
# Sugar beet = experiment: Pre-emergence test, Sugar beet; type: in vivo; conditions: pre-emergence/greenhouse; 250 g of ai/ha; after three weeks; crop
# Description: as §2
# [15] = pH 2.3, pH 2.3, read-out: logP (2.3)
smiles,measurement,setting,value
COC1CCC2(CC1)NC(=O)C(Cl)(c1c(Cl)ccc(C)c1Cl)C2=O (stereo not drawn) [Ex. I-1-a-33],Kill rate in % after 14d,Meloidogyne incognita,98%
Cc1cc(Br)cc(C)c1C1(Cl)C(=O)NC2(CCCOC2)C1=O (stereo not drawn) [Ex. I-1-b-1],Kill rate in % after 7d,Tetranychus urticae,95%
COc1cc(C(F)(F)F)cc(Cl)c1C1(Cl)C(=O)NC2(CCC(OC)CC2)C1=O (stereo not drawn) [Ex. I-1-a-5],Kill rate in % after 7d,Tetranychus urticae,95%
COC1CCC2(CC1)NC(=O)C(Cl)(c1ccc(OC(F)(F)F)cc1C)C2=O (stereo not drawn) [Ex. I-1-a-22],Kill rate in % after 7d,Tetranychus urticae,100%
COC1CCC2(CC1)NC(=O)C(Cl)(c1c(C)cc(Br)cc1C)C2=O (stereo not drawn) [Ex. I-1-a-9],Kill rate in % after 7d,Phaedon cochleariae,90%
same,"% damage, Alopecurus",Alopecurus [1],100%
same,"% damage, Avena fatua",Avena fatua [2],80%
same,"% damage, Echinochloa",Echinochloa [3],100%
same,"% damage, Setaria",Setaria [4],100%
same,"% damage, Sinapis",Sinapis [5],90%
same,"% damage, Alopecurus",Alopecurus [6],95%
same,"% damage, Avena fatua",Avena fatua [7],90%
same,"% damage, Echinochloa",Echinochloa [8],100%
same,"% damage, Setaria",Setaria [9],100%
same,"% damage, Sinapis",Sinapis [10],80%
COC1CCC2(CC1)NC(=O)C(Cl)(c1c(Cl)cc(Cl)cc1Cl)C2=O (stereo not drawn) [Ex. I-1-a-42],Kill rate in % after 14d,Meloidogyne incognita,90%
same,Kill rate in % after 6d,Myzus persicae [11],95%
COC1CCC2(CC1)NC(=O)C(Cl)(c1c(Cl)cc(Cl)c(C)c1Cl)C2=O (stereo not drawn) [Ex. I-1-a-27],Kill rate in % after 14d,Meloidogyne incognita,100%
same,Kill rate in % after 6d,Myzus persicae [11],90%
COC1CCC2(CC1)NC(=O)C(Cl)(c1cc(C)ccc1C)C2=O (stereo not drawn) [Ex. I-1-a-2],Kill rate in % after 6d,Aphis gossypii [12],95%
same,Kill rate in % after 14d,Meloidogyne incognita,90%
same,Kill rate in % after 7d,Tetranychus urticae,98%
Cc1cc(Cl)cc(Cl)c1C1(Cl)C(=O)NC2(CCOC(C)C2)C1=O (stereo not drawn) [Ex. I-1-c-1],Kill rate in % after 6d,Aphis gossypii [12],90%
same,Kill rate in % after 7d,Aphis gossypii [13]; infection after 7 d,99%
same,Kill rate in % after 7d,Aphis gossypii [13]; infection after 21 d,99^ %
same,Kill rate in % after 7d,Aphis gossypii [13]; infection after 35 d,98^ %
same,Kill rate in % after 7d,Myzus persicae [14]; infection after 7 d,100%
same,Kill rate in % after 7d,Myzus persicae [14]; infection after 21 d,100%
same,Kill rate in % after 7d,Myzus persicae [14]; infection after 35 d,100%
COC1CCC2(CC1)OC(=O)C(c1cc(C)c(C)cc1C)([N+](=O)[O-])C2=O (stereo not drawn) [I-2-a-2],log P,"log P determination; isomer mixture, two values",4.42
same,logP (2.3),log P determination; pH 2.3,4.42
same,logP,"log P determination; pH 2.3, isomer mixture, two values, read-out: log P",4.17
same,logP,log P determination; [15],4.17
CCc1cc(Cl)c(C2(Cl)C(=O)NC3(CCCOC3)C2=O)c(Br)c1 (stereo not drawn) [Ex. I-1-b-5],Kill rate in % after 7d,Tetranychus urticae,90%
CCc1cc(Cl)cc(Cl)c1C1(Cl)C(=O)NC2(CCC(OC)CC2)C1=O (stereo not drawn) [Ex. I-1-a-46],Kill rate in % after 6d,Myzus persicae [11],98%
same,"% damage, Alopecurus",Alopecurus [1],95%
same,"% damage, Avena fatua",Avena fatua [2],100%
same,"% damage, Echinochloa",Echinochloa [3],100%
same,"% damage, Setaria",Setaria [4],100%
same,"% damage, Sugar beet",Sugar beet,0%
same,"% damage, Alopecurus",Alopecurus [6],100%
same,"% damage, Avena fatua",Avena fatua [7],100%
same,"% damage, Echinochloa",Echinochloa [8],100%
same,"% damage, Setaria",Setaria [9],100%
same,"% damage, Sinapis",Sinapis [10],70%
COC1CCC2(CC1)NC(=O)C(Cl)(c1cc(C)ccc1Cl)C2=O (stereo not drawn) [Ex. I-1-a-1],Kill rate in % after 7d,Phaedon cochleariae,100%
Cc1cc(Cl)ccc1C1(Cl)C(=O)NC2(CCOCC2)C1=O (stereo not drawn) [Ex. I-1-c-4],Kill rate in % after 6d,Myzus persicae [11],95%
Cc1cc(Br)cc(Cl)c1C1(Cl)C(=O)NC2(CCCOC2)C1=O (stereo not drawn) [Ex. I-1-b-8],Kill rate in % after 7d,Phaedon cochleariae,100%
COC1CCC2(CC1)OC(=O)C(Cl)(c1cc(C)c(C)cc1C)C2=O (stereo not drawn) [Ex. I-2-a-1],Kill rate in % after 7d,Myzus persicae [14]; infection after 7 d,100%
same,Kill rate in % after 7d,Myzus persicae [14]; infection after 21 d,95%
same,Kill rate in % after 7d,Myzus persicae [14]; infection after 35 d,0%
same,logP,"log P determination; pH 2.3, pH 2.3, read-out: log P (pH 2.3)",4.07
same,logP,log P determination; [15],4.07
CCOC1CCC2(CC1)NC(=O)C(Cl)(c1cc(C)ccc1Br)C2=O (stereo not drawn) [Ex. I-1-a-41],Kill rate in % after 7d,Phaedon cochleariae,100%
same,Kill rate in % after 7d,Tetranychus urticae,95%
COC1CCC2(CC1)NC(=O)C(Cl)(c1ccc(C)cc1C(F)(F)F)C2=O (stereo not drawn) [Ex. I-1-a-16],Kill rate in % after 7d,Tetranychus urticae,100%
Cc1cc(Cl)cc(Br)c1C1(Cl)C(=O)NC2(CCCOC2)C1=O (stereo not drawn) [Ex. I-1-b-9],Kill rate in % after 7d,Phaedon cochleariae,100%
